Measurements taken from patent publication US10144914B2, “Modified substrates for protection of peptide-immobilized surfaces from gamma radiation degradation” (Corning Incorporated, priority 2010, dated 2018).

Assays:
[1] = Solubility of individual coating components in water, ethanol and 1M HCl; assay type: physicochemical
Description: iii) Preparation of Antioxidant/Stabilizer Formulations: Prior to preparation of the antioxidant/stabilizer coating formulation, solubility of the individual components of each formulation was determined in water, ethanol and 1M HCl. Majority of the components were soluble in water, except for two in ethanol and one in 1M HCl. Both n-propyl gallate and Trolox were soluble in ethanol and only L-Tryptophan in 1M HCl. For each individual coating mixture formulation (i.e. Coatings 1-8), in a separate 25 mL glass vial containing the different components individually weighed out based on their respective wt % (see Table 1, below), Coating 1: 22 ml of solvent was used to make the coating solution (i.e. 20 mL of DI/water+2 ml of ethanol); Coating 2: 20 mL of DI/water added to vial; Coating 3: 18 mL of DI/water added+2 mL of ethanol to vial; Coating 4: 20 mL of DI/water+2 mL of ethanol; Coating 5: 16 mL of DI/water+4 mL of 1M HCl; Coating 6: 12 mL of DI/water+2 mL of ethanol+4 mL of 1M HCl; Coating 7: 20 mL of DI/water; Coating 8: 10 ml of DI/water+4 ml of ethanol+5 ml of 1M HCl.

H7 cells [2] = assay: Crystal violet staining of H7 cells on gamma sterilized VN peptide acrylate surface, amino acid blocking; assay type: cell-based, human; conditions: gamma irradiated; for H7 attachment and growth (crystal violet staining): used as blocking reagent after peptide conjugation
Description: (§1) Acrylate coating: 2-Hydroxyethyl methacryalte, 2-carboxyethyl acrylate, tetra(ethylene glycol) dimethacrylate, Darocur 1173, Irgacure 819 were mixed with ratio of 80:20:3:3:0.1 and dissolved in ethanol at total monomer concentration of 5%. The obtained formulation was spin coated on oxygen plasma treated Zeonor film. After ethanol evaporated, the (meth)acrylate coating was cured using Xenon pulsed UV curing system in nitrogen purged box. Then, the coated films were in-mold-labeled into T-75 Zeonor flasks and used for conjugation directly.
(§2) Peptide conjugation: The acrylate surface was activated for an hour with 1:1 EDC: NHS in DMF. After aspiration of the activation solution, the surface was treated for an hour with 1 mM of the VN peptide (Ac-[…]) (SEQ ID NO:1) in phosphate buffer (pH7.4). After aspiration of the peptide solution, the surface was treated for an hour with 1M ethanolamine adjusted to pH 8.0-8.5 with hydrochloric acid or 0.1M of L-methionine methyl ester hydrochloride adjusted to pH 8 with sodium hydroxide based on experimental design. All reactions were performed at room temperature.
Sterilization: Flasks were packed with nitrogen and desiccant in aluminum pouch for Gamma sterilization. The irradiation dose was 11-18 kGy. Positive control VN-peptide acrylate sample was sanitized with 70% ethanol.
Stem cell culture: H7 cells were sub-cultured into T-75 fasks with desired peptide acrylate surfaces or Matrigel™ coated surfaces (positive control) at the density of 100,000 cell/cm^2 in X-VIVO 10+GF medium. Microscopic examination of cell and colony morphology was performed at day 3 or day 4. Cell number was assessed at day 4 or day 5 by harvesting with collagenase IV/EDTA treatment followed by cell counting with automated cell number/viability analyzer, Vi-Cell (Beckman Coulter). For methionine methyl ester treated surface, a step of rinsing with DPBS was applied to remove amino acid extractables before cell culture.

H7 cells [3] = assay: H7 cell count and morphology on gamma sterilized VN peptide acrylate surface after amino acid absorption; assay type: cell-based, human; conditions: 0.1M absorbed 1 hr, gamma 11-18 kGy
Description: as §1, §2
Amino acid absorption: Peptide conjugated T-75 flask was filled with 10 mL of 0.1M of L-methionine methyl ester hydrochloride adjusted to pH 8 with sodium hydroxide. The flasks were lay flat so that the peptide surfaces were submerged under the amino acid solution and were incubated for 1 hr. This allows positive charged amino acid to be absorbed into negative charged peptide-acrylate coating. Then the amino acid solution was removed and the flasks were dried in vacuum for overnight before packing and sterilization. […]
Stem cell culture: H7 cells were sub-cultured into T-75 fasks with desired peptide acrylate surfaces or Matrigel™ coated surfaces (positive control) at the density of 100,000 cell/cm^2 in X-VIVO 10+GF medium. […] Cell number was assessed at day 4 or day 5 by harvesting with collagenase IV/EDTA treatment followed by cell counting with automated cell number/viability analyzer, Vi-Cell (Beckman Coulter). […]

[4] = Solubility of VN peptide in ethanol; assay type: physicochemical; conditions: 100% 200-proof ethanol, 0.5 mM or 1 mM, after agitation
Description: iii) Preparation of VN peptide coating solution: A 10 mL 0.5 mM or 1 mM VN coating solution was prepared by weighing out their corresponding masses and dissolving using a 100% 200-proof ethanol as the solvent.

N[C@@H](Cc1c[nH]c2ccccc12)C(=O)O [L-Tryptophan]
solubility in 1M HCl ([1]; 1M HCl): soluble

Cc1c(C)c2c(c(C)c1O)CCC(C)(C(=O)O)O2 (stereo not shown) [Trolox]
solubility in ethanol [1]: soluble

NCCO [ethanolamine, reference compound]
H7 attachment and growth (crystal violet staining) (H7 cells [2]): there were not cells attached or grew

COC(=O)[C@@H](N)CCSC.Cl [methionine methyl ester, L-methionine methyl ester hydrochloride]
H7 attachment and growth (crystal violet staining) (H7 cells [2]): still support good H7 attachment and growth
cell morphology versus ethanol sanitized surfaces (H7 cells [2]; used as blocking reagent): still not able to much those on ethanol sanitized surfaces
bioactivity of VN-peptide acrylate surface after Gamma irradiation (H7 cells [3]): maintained
stem cell morphology versus positive control (H7 cells [3]): comparable
cell number after 4 days of culture versus ETOH ctr and Matrigel (H7 cells [3]; day 4): comparable

CCCOC(=O)c1cc(O)c(O)c(O)c1 [n-propyl gallate]
solubility in ethanol [1]: soluble

Ac-KGGPQVTRGDVFTMP-NH2 (C-terminus assumed) [VN peptide]
solubility in the ethanol solvent [4]: partial to almost completely soluble
